Reference: patent publication US20100298141A1, “SUBSTITUTED PYRIDINE N-OXIDE HERBICIDES” (E. I. DU PONT DE NEMOURS AND COMPANY, priority 2007, published 2010)

What was measured:
woolly cupgrass = experiment: Test C pre-/postemergence test; assay type: in vivo, Eriochloa villosa; conditions: Preemergence
Method in brief: (§1)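 Compounds in a non-phytotoxic solvent with surfactant applied preemergence to seeded pots and, at the same time, postemergence to plants 2–18 cm tall (1- to 4-leaf stage). Paddy tests: pots flooded to 3 cm, compound applied into the water, depth held throughout.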

corn = experiment: Test C pre-/postemergence test; assay type: in vivo, Zea mays
Method in brief: as §1

green foxtail = experiment: Test C pre-/postemergence test; assay type: in vivo, Setaria viridis; conditions: Preemergence
Method in brief: as §1

johnsongrass = experiment: Test C pre-/postemergence test; assay type: in vivo, Sorghum halepense; conditions: Preemergence
Method in brief: as §1

morningglory = experiment: Test C pre-/postemergence test; assay type: in vivo, Ipomoea coccinea; conditions: Preemergence
Method in brief: as §1

velvetleaf [1] = experiment: Test A pre-/postemergence greenhouse test; assay type: in vivo, Abutilon theophrasti; conditions: for Velvetleaf plant response rating: 0 to 100 scale
Method in brief: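 Herbicidal effect is a visual injury score given about ten days post-treatment by comparison with untreated controls. Preemergence plots received a directed spray onto sown loam–sand soil; postemergence plants, at the one- to two-leaf stage and 2–10 cm tall, were sprayed at the same time.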

soybean = experiment: Test C pre-/postemergence test; assay type: in vivo, Glycine max; conditions: Preemergence
Method in brief: as §1

duck salad = experiment: Test C flooded paddy test; assay type: in vivo, Heteranthera limosa; conditions: Flood
Method in brief: (§2)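 Pots were flooded to 3 cm above the soil surface at treatment, compound applied directly to the paddy water, and that depth held throughout. Plants were kept in a greenhouse for 13 to 15 days, then visually rated against untreated controls.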

giant foxtail = experiment: Test C pre-/postemergence test; assay type: in vivo, Setaria faberii; conditions: Preemergence
Method in brief: as §1

Italian ryegrass = experiment: Test C pre-/postemergence test; assay type: in vivo, Lolium multiflorum; conditions: Preemergence
Method in brief: as §1

blackgrass = experiment: Test C pre-/postemergence test; assay type: in vivo, Alopecurus myosuroides
Method in brief: as §1

wild oat = experiment: Test C pre-/postemergence test; assay type: in vivo, Avena fatua; conditions: Preemergence
Method in brief: as §1

barnyardgrass = experiment: Test C flooded paddy test; assay type: in vivo, Echinochloa crus-galli; conditions: Flood
Method in brief: as §2

velvetleaf [2] = experiment: Test C pre-/postemergence test; assay type: in vivo, Abutilon theophrasti; conditions: Preemergence
Method in brief: as §1

cocklebur = experiment: Test C pre-/postemergence test; assay type: in vivo, Xanthium strumarium
Method in brief: as §1

downy brome = experiment: Test C pre-/postemergence test; assay type: in vivo, Bromus tectorum
Method in brief: as §1

catchweed bedstraw = experiment: Test C pre-/postemergence test; assay type: in vivo, Galium aparine; conditions: Preemergence
Method in brief: as §1

[3] = 31 g ai/ha, scale 0 to 100 (0 no effect, 100 complete control)
[4] = 62 g ai/ha, Preemergence, scale 0 to 100
[5] = Preemergence, 31 g ai/ha, scale 0 to 100 (0 no effect, 100 complete control)
[6] = preemergence, 125 g ai/ha, scale 0 (no effect) to 100 (complete control)
[7] = 62 g ai/ha, scale 0 to 100, 0 no effect, 100 complete control, 13 to 15 days
[8] = 125 g ai/ha, scale 0 to 100, 0 no effect, 100 complete control, 13 to 15 days
[9] = 250 g ai/ha, scale 0 to 100 (0 no effect, 100 complete control)

## Cn1nc(C(F)(F)F)c(C[S+]([O-])c2cc(C(C)(C)C)cc[n+]2[O-])c1OC(F)F (racemic) [Compound 24]
Woolly cupgrass; 62 g ai/ha, scale 0 to 100
  Cupgrass, Woolly plant response rating: 60
Woolly cupgrass; [3]
  Plant response rating, Cupgrass, Woolly: 40
Woolly cupgrass; 250 g ai/ha
  Plant response rating (0 to 100), Cupgrass, Woolly: 100
corn; [4]
  Corn plant response rating: 50
corn; [5]
  Plant response rating, Corn: 0
corn; Preemergence, 250 g ai/ha
  Plant response rating (0 to 100), Corn: 90
corn; [6]
  Corn plant response rating: 90
Green foxtail; 62 g ai/ha, scale 0 to 100
  Foxtail, Green plant response rating: 70
Green foxtail; [3]
  Plant response rating, Foxtail, Green: 10
Green foxtail; 250 g ai/ha
  Plant response rating (0 to 100), Foxtail, Green: 100
johnsongrass; 62 g ai/ha, scale 0 to 100
  Johnsongrass plant response rating: 90
johnsongrass; [3]
  Plant response rating, Johnsongrass: 50
johnsongrass; 250 g ai/ha
  Plant response rating (0 to 100), Johnsongrass: 100
morningglory; 62 g ai/ha, scale 0 to 100
  Morningglory plant response rating: 80
morningglory; [3]
  Plant response rating, Morningglory: 70
Velvetleaf [1]; Postemergence, 125 g ai/ha, 0 is no effect, 100 is complete control
  Velvetleaf plant response rating: 40
Velvetleaf [1]; Postemergence, 500 g ai/ha, 0 is no effect, 100 is complete control
  Velvetleaf plant response rating: 60
Velvetleaf [1]; Preemergence, 125 g ai/ha, 0 no effect, 100 complete control
  Velvetleaf plant response rating: 70
Velvetleaf [1]; Preemergence, 500 g ai/ha, 0 to 100 scale where 0 is no effect and 100 is complete control
  Plant response rating, Velvetleaf: 100
soybean; 62 g ai/ha, scale 0 to 100
  Soybean plant response rating: 85
soybean; [3]
  Plant response rating, Soybean: 0
Duck salad; [3]
  Plant response rating, Ducksalad: 0
Duck salad; [7]
  Plant response rating, Ducksalad: 60
Duck salad; [8]
  Plant response rating, Ducksalad: 80
Duck salad; [9]
  Plant response rating, Ducksalad: 85
Giant foxtail; 62 g ai/ha, scale 0 to 100
  Foxtail, Giant plant response rating: 90
Giant foxtail; [3]
  Plant response rating, Foxtail, Giant: 70
Giant foxtail; 250 g ai/ha
  Plant response rating (0 to 100), Foxtail, Giant: 100
Italian ryegrass; 62 g ai/ha, scale 0 to 100
  Ryegrass, Italian plant response rating: 0
Italian ryegrass; [3]
  Plant response rating, Ryegrass, Italian: 0
blackgrass; [4]
  Blackgrass plant response rating: 20
blackgrass; [5]
  Plant response rating, Blackgrass: 20
blackgrass; Preemergence, 250 g ai/ha
  Plant response rating (0 to 100), Blackgrass: 100
blackgrass; [6]
  Blackgrass plant response rating: 50
Wild oat; 62 g ai/ha, scale 0 to 100
  Oat, Wild plant response rating: 80
Wild oat; [3]
  Plant response rating, Oat, Wild: 50
barnyardgrass; [3]
  Plant response rating, Barnyardgrass: 0
barnyardgrass; [7]
  Plant response rating, Barnyardgrass: 30
barnyardgrass; [8]
  Plant response rating, Barnyardgrass: 30
barnyardgrass; [9]
  Plant response rating, Barnyardgrass: 35
Velvetleaf [2]; 62 g ai/ha, scale 0 to 100
  Velvetleaf plant response rating: 100
Velvetleaf [2]; [3]
  Plant response rating, Velvetleaf: 55
cocklebur; [4]
  Cocklebur plant response rating: 0
cocklebur; [5]
  Plant response rating, Cocklebur: 0
cocklebur; [6]
  Cocklebur plant response rating: 0
Downy brome; [4]
  Bromegrass, Downy plant response rating: 50
Downy brome; [5]
  Plant response rating, Bromegrass, Downy: 10
Downy brome; Preemergence, 250 g ai/ha
  Plant response rating (0 to 100), Bromegrass, Downy: 65
Downy brome; [6]
  Bromegrass, Downy plant response rating: 50
Catchweed bedstraw; 62 g ai/ha, scale 0 to 100
  Galium plant response rating: 98
Catchweed bedstraw; [3]
  Plant response rating, Galium: 0
Catchweed bedstraw; 250 g ai/ha
  Plant response rating (0 to 100), Galium: 100
